Where two headings read alike, the source gives them in different places.
Assays:
[1] = system: HCC827 cells (EGFR Exon19 del, non-small cell lung cancer cells); assay: Cell viability assay (WST/CCK8), HCC827 cells; assay type: cell-based; conditions: Homo sapiens, HCC827, 72 h, HCC827 (Exon19 Del), 72 hours, read-out: IC50 (half inhibitory concentration)
Summary of the method: (§1)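 Cells seeded at 3 000/well in RPMI1640 complete medium, dosed next day with compounds (top 10 μM, 3-fold, 10 points) for 72 h. Viability read with WST (CCK8) reagent; DMSO as negative control, EGFR TKIs as positive controls; IC50 determined.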

[2] = system: PC9 cells (EGFR Exon 19 del, non-small cell lung cancer cells); assay: Cell viability assay (WST/CCK8), PC9 cells; assay type: cell-based; conditions: Homo sapiens, PC-9, PC9 (Exon19 Del), 72 hours, read-out: IC50 (half inhibitory concentration)
Summary of the method: as §1

Structure (SMILES)	IC50 ([1]; WST (CCK8))	IC50 ([2]; WST (CCK8))	IC50 ([1]; Table 4, gefitinib and sapitinib-based compounds, WST)	IC50 ([2]; Table 4, gefitinib-based compounds, WST)
COc1cc2ncnc(Nc3ccc(F)c(Cl)c3)c2cc1NC(=O)/C=C/CN1CCN(C(=O)CCC(=O)N[C@H](C(=O)N2C[C@H](O)C[C@H]2C(=O)NCc2ccc(-c3scnc3C)cc2)C(C)(C)C)CC1 [SIAIS249041, (2S,4R)-1-((S)-2-(4-(4-((E)-4-((4-((3-chloro-4-fluorophenyl)amino)-7-methoxyquinazolin-6-yl)amino)-4-oxobut-2-en-1-yl)piperazin-1-yl)-4-oxobutanamido)-3,3-dimethylbutanoyl)-4-hydroxy-N-(4-(4-methylthiazol-5-yl)benzyl)pyrrolidine-2-carboxamide]	38.3 nM	99 nM	–	–
COc1cc2ncnc(Nc3ccc(F)c(Cl)c3)c2cc1NC(=O)/C=C/CN1CCNCC1 [Dacomitinib derivative A, (E)-N-(4-((3-chloro-4-fluorophenyl)amino)-7-methoxyquinazolin-6-yl)-4-(piperazin-1-yl)but-2-enamide]	4 nM	9.7 nM	–	–
COc1cc2ncnc(Nc3ccc(F)c(Cl)c3)c2cc1NC(=O)/C=C/CN1CCN(C(=O)COCCOCCSc2cccc3c2C(=O)N(C2CCC(=O)NC2=O)C3=O)CC1 (stereo not shown) [SIAIS262005, (E)-N-(4-((3-chloro-4-fluorophenyl)amino)-7-methoxyquinazolin-6-yl)-4-(4-(2-(2-(2-((2-(2,6-dioxopiperidin-3-yl)-1,3-dioxoisoindolin-4-yl)thio)ethoxy)ethoxy)acetyl)piperazin-1-yl)but-2-enamide]	66.9 nM	84 nM	–	–
COc1cc2ncnc(Nc3ccc(F)c(Cl)c3)c2cc1NC(=O)/C=C/CN1CCN(C(=O)CCCCCCNc2cccc3c2CN(C2CCC(=O)NC2=O)C3=O)CC1 (stereo not shown) [SIAIS249060, (E)-N-(4-((3-chloro-4-fluorophenyl)amino)-7-methoxyquinazolin-6-yl)-4-(4-(7-((2-(2,6-dioxopiperidin-3-yl)-1-oxoisoindolin-4-yl)amino)heptanoyl)piperazin-1-yl)but-2-enamide]	11.5 nM	16 nM	–	–
COc1cc2ncnc(Nc3ccc(F)c(Cl)c3)c2cc1NC(=O)/C=C/CN1CCC(N2CCN(Cc3ccc(CSc4cccc5c4CN(C4CCC(=O)NC4=O)C5=O)cc3)CC2)CC1 (stereo not shown) [SIAIS337021, (E)-N-(4-((3-chloro-4-fluorophenyl)amino)-7-methoxyquinazolin-6-yl)-4-(4-(4-(4-(((2-(2,6-dioxopiperidin-3-yl)-1-oxoisoindolin-4-yl)thio)methyl)benzyl)piperazin-1-yl)piperidin-1-yl)but-2-enamide]	1.3 nM	74 nM	–	–
COc1cc2ncnc(Nc3ccc(F)c(Cl)c3)c2cc1NC(=O)/C=C/CN1CCN(C(=O)CCNc2cccc3c2C(=O)N(C2CCC(=O)NC2=O)C3=O)CC1 (stereo not shown) [SIAIS262016, (E)-N-(4-((3-chloro-4-fluorophenyl)amino)-7-methoxyquinazolin-6-yl)-4-(4-(3-((2-(2,6-dioxopiperidin-3-yl)-1,3-dioxoisoindolin-4-yl)amino)propanoyl)piperazin-1-yl)but-2-enamide]	4.5 nM	112 nM	–	–
COc1cc2ncnc(Nc3ccc(F)c(Cl)c3)c2cc1NC(=O)/C=C/CN1CCC(NC(=O)CCCSc2cccc3c2CN(C2CCC(=O)NC2=O)C3=O)CC1 (stereo not shown) [SIAIS262112, (E)-N-(4-((3-chloro-4-fluorophenyl)amino)-7-methoxyquinazolin-6-yl)-4-(4-(4-((2-(2,6-dioxopiperidin-3-yl)-1-oxoisoindolin-4-yl)thio)butanamido)piperidin-1-yl)but-2-enamide]	14 nM	42.5 nM	–	–
COc1cc2ncnc(Nc3ccc(F)c(Cl)c3)c2cc1NC(=O)/C=C/CN1CCN(C(=O)CCCNc2cccc3c2C(=O)N(C2CCC(=O)NC2=O)C3=O)CC1 (stereo not shown) [SIAIS249062, (E)-N-(4-((3-chloro-4-fluorophenyl)amino)-7-methoxyquinazolin-6-yl)-4-(4-(4-((2-(2,6-dioxopiperidin-3-yl)-1,3-dioxoisoindolin-4-yl)amino)butanoyl)piperazin-1-yl)but-2-enamide]	3.7 nM	10 nM	–	–
COc1cc2ncnc(Nc3ccc(F)c(Cl)c3)c2cc1NC(=O)/C=C/CN1CCC(N2CCN(CCCC#Cc3cccc4c3CN(C3CCC(=O)NC3=O)C4=O)CC2)CC1 (stereo not shown) [SIAIS262050, (E)-N-(4-((3-chloro-4-fluorophenyl)amino)-7-methoxyquinazolin-6-yl)-4-(4-(4-(5-(2-(2,6-dioxopiperidin-3-yl)-1-oxoisoindolin-4-yl)pent-4-yn-1-yl)piperazin-1-yl)piperidin-1-yl)but-2-enamide]	0.8 nM	9.9 nM	–	–
COc1cc2ncnc(Nc3ccc(F)c(Cl)c3)c2cc1NC(=O)/C=C/CN1CCC(N2CCN(CCCCC#Cc3cccc4c3CN(C3CCC(=O)NC3=O)C4=O)CC2)CC1 (stereo not shown) [SIAIS262051, (E)-N-(4-((3-chloro-4-fluorophenyl)amino)-7-methoxyquinazolin-6-yl)-4-(4-(4-(6-(2-(2,6-dioxopiperidin-3-yl)-1-oxoisoindolin-4-yl)hex-5-yn-1-yl)piperazin-1-yl)piperidin-1-yl)but-2-enamide]	2.5 nM	2.5 nM	–	–
COc1cc2ncnc(Nc3ccc(F)c(Cl)c3)c2cc1OCCCN1CCN(C(=O)COCCSc2cccc3c2C(=O)N(C2CCC(=O)NC2=O)C3=O)CC1 (stereo not shown) [SIAIS184168, 4-((2-(2-(4-(3-((4-((3-chloro-4-fluorophenyl)amino)-7-methoxyquinazolin-6-yl)oxy)propyl)piperazin-1-yl)-2-oxoethoxy)ethyl)thio)-2-(2,6-dioxopiperidin-3-yl)isoindoline-1,3-dione]	–	–	43 nM	317 nM
COc1cc2ncnc(Nc3ccc(F)c(Cl)c3)c2cc1NC(=O)/C=C/CN1CCC(N2CCN(CCCCCCOc3cccc4c3CN(C3CCC(=O)NC3=O)C4=O)CC2)CC1 (stereo not shown) [SIAIS337029, (E)-N-(4-((3-chloro-4-fluorophenyl)amino)-7-methoxyquinazolin-6-yl)-4-(4-(4-(6-((2-(2,6-dioxopiperidin-3-yl)-1-oxoisoindolin-4-yl)oxy)hexyl)piperazin-1-yl)piperidin-1-yl)but-2-enamide]	0.3 nM	28.4 nM	–	–
COc1cc2ncnc(Nc3ccc(F)c(Cl)c3)c2cc1NC(=O)/C=C/CN1CCN(C(=O)COCCOCCOCCOCCOCCSc2cccc3c2CN(C2CCC(=O)NC2=O)C3=O)CC1 (stereo not shown) [SIAIS262004, (E)-N-(4-((3-chloro-4-fluorophenyl)amino)-7-methoxyquinazolin-6-yl)-4-(4-(17-((2-(2,6-dioxopiperidin-3-yl)-1-oxoisoindolin-4-yl)thio)-3,6,9,12,15-pentaoxaheptadecan-1-oyl)piperazin-1-yl)but-2-enamide]	7.2 nM	15 nM	–	–
COc1cc2ncnc(Nc3ccc(F)c(Cl)c3)c2cc1NC(=O)/C=C/CN1CCN(C(=O)CCCCSc2cccc3c2C(=O)N(C2CCC(=O)NC2=O)C3=O)CC1 (stereo not shown) [SIAIS249037, (E)-N-(4-((3-chloro-4-fluorophenyl)amino)-7-methoxyquinazolin-6-yl)-4-(4-(5-((2-(2,6-dioxopiperidin-3-yl)-1,3-dioxoisoindolin-4-yl)thio)pentanoyl)piperazin-1-yl)but-2-enamide]	6.6 nM	28.7 nM	–	–

From patent US12564638B2 (SHANGHAITECH UNIVERSITY, priority 2019, dated 2026)
